Source: paper PMC11803614 (2025)
One block for each molecule: values may come before it.

Experiments:
Assay in all cases: electrochemical aptamer-based sensor, square-wave voltammetry titration (KDM)
[1] = tested on: tryptophan (DNA, aptamer) CCGGTGGTGTAGTTCCGGCGTGGGGAAGG; details: PBS (ion concentrations not given), room temperature, 0% carboxylate SAM, immobilised aptamer, biphasic, higher affinity event
[2] = tested on: procaine (DNA, aptamer) AGACAAGGAAAATCCTTCAACGAAGTGGGTCG; details: undiluted bovine blood, room temperature and 37 °C; 0% carboxylate SAM; no Kd, upper plateau not reached
[3] = tested on: vanc-45 (also printed vanc-48) (DNA, aptamer) CGAGGGTACCGCAATAGTACTTATTGTTCGCCTATTGTGGGTCGG; details: PBS (ion concentrations not given), room temperature, 0% carboxylate (6-mercaptohexanol) SAM, immobilised aptamer
[4] = tested on: vanc-28 (DNA, aptamer) GCGAGGGTACCGCTTAAAGTGGGTCGGC; details: PBS (ion concentrations not given), room temperature, 0% carboxylate (6-mercaptohexanol) SAM, immobilised aptamer

Kd [1]: 13.0 ± 1.4 µM
Compound: N[C@@H](Cc1c[nH]c2ccccc12)C(=O)O

binding [2]: yes
Compound: CCN(CC)CCOC(=O)c1ccc(N)cc1

Kd [3]: 15.2 ± 0.4 µM | Kd [4]: 0.6 ± 0.1 µM
Compound: CN[C@H](CC(C)C)C(=O)N[C@H]1C(=O)N[C@@H](CC(N)=O)C(=O)N[C@H]2C(=O)N[C@H]3C(=O)N[C@H](C(=O)N[C@H](C(=O)O)c4cc(O)cc(O)c4-c4cc3ccc4O)[C@H](O)c3ccc(c(Cl)c3)Oc3cc2cc(c3O[C@@H]2O[C@H](CO)[C@@H](O)[C@H](O)[C@H]2O[C@H]2C[C@](C)(N)[C@H](O)[C@H](C)O2)Oc2ccc(cc2Cl)[C@H]1O
